Our source for the IC50 values is patent US11306081B2, “Phenylacetamides as inhibitors of rock” (BRISTOL-MYERS SQUIBB COMPANY, priority 2017, dated 2022).

ROCK2, sequence (O75116 whole entry, species assumed): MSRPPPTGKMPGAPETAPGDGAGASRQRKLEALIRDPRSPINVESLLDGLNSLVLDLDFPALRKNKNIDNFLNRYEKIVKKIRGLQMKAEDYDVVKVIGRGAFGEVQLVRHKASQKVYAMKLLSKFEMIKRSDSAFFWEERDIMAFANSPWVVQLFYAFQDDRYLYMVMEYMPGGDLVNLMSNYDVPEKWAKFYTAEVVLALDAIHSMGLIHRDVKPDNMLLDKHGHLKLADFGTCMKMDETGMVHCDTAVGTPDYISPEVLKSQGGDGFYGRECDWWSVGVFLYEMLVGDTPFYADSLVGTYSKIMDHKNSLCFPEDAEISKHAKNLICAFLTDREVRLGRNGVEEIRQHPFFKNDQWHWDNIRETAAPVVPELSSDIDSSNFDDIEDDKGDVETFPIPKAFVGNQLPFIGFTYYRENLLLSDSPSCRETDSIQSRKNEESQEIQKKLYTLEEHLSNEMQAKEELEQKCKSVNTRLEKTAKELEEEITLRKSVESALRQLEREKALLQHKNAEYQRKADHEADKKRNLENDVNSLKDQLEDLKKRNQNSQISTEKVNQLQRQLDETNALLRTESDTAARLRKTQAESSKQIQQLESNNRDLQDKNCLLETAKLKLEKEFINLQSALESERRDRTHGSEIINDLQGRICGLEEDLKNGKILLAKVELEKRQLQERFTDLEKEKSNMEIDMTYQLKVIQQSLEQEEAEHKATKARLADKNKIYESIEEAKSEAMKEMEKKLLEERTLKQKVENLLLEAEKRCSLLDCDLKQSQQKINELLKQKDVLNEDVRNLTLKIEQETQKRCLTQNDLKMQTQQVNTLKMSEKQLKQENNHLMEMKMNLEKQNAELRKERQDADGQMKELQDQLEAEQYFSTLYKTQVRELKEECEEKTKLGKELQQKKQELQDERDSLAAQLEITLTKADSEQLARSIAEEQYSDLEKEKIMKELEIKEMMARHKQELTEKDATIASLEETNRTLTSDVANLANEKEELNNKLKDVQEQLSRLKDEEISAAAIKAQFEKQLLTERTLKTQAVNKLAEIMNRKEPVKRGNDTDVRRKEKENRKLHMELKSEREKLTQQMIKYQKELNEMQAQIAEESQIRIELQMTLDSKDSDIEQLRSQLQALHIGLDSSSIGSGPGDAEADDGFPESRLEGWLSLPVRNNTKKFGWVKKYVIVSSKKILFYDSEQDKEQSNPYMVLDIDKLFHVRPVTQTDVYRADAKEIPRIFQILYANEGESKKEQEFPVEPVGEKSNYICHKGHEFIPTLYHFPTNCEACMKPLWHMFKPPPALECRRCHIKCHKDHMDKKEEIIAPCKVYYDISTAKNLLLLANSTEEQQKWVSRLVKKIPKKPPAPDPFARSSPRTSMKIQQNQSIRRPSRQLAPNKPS

The target in this assay is ROCK2 (Homo sapiens (Human), UniProt O75116). The assay is described as follows: ROCK assay (LABCHIP 3000 peptide phosphorylation assay). It is filed as biochemical. Particulars: 5 μM ATP, 1.5 μM peptide substrate, dose-response. The gist of the method:
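Rho kinase variants in 20 mM HEPES pH 7.5, 20 mM MgCl2, 0.015% Brij-35, 4 mM DTT, 5 μM ATP, 1.5 μM FITC-AHA-AKRRRLSSLRA-OH peptide; DMSO <2%. EDTA-stopped; phosphorylated/non-phosphorylated peptide separated by microfluidic LabChip readout. Dose-response inhibition curve-fitted to give IC50.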
A word on the IC50: it is the concentration at which inhibition is half-maximal. As to `Cc1sc(NC(=O)Cc2ccc(Oc3ncccc3C(N)=O)c(Cl)c2)nc1-c1ccc(F)nc1` [Example 103, 2-(2-chloro-4-(2-((4-(6-fluoropyridin-3-yl)-5-methylthiazol-2-yl)amino)-2-oxoethyl)phenoxy) nicotinamide], half-maximal inhibition (IC50) required 0.017 µM.

`COc1ccc2c(c1)CCc1sc(NC(=O)Cc3ccc(Oc4ncccc4C(N)=O)cc3)nc1-2` [Example 053, 2-(4-(2-((7-methoxy-4,5-dihydronaphtho[1,2-d]thiazol-2-yl)amino)-2-oxoethyl)phenoxy) nicotinamide] yielded an IC50 of 0.021 µM.

For the molecule `NC(=O)c1cccnc1Oc1ccc(CC(=O)Nc2nc3ccccc3n2CC2CCOCC2)cc1F` [Example 159, 2-(2-fluoro-4-(2-oxo-2-((1-((tetra-hydro-2H-pyran-4-yl)methyl)-1H-benzo[d]imidazol-2-yl)amino)ethyl)-phenoxy)nicotin-amide], the IC50 was found to be 2.18 µM.

Take `Cc1sc(NC(=O)Cc2ccc(Oc3ncccc3C(N)=O)cc2)nc1-c1ccc(F)cc1` [Example 078, 2-(4-(2-((4-(4-fluorophenyl)-5-methylthiazol-2-yl)amino)-2-oxoethyl)phenoxy) nicotinamide]: the IC50 was found to be 0.096 µM.

The molecule `Cc1nnc(NC(=O)Cc2ccc(Oc3ncccc3C(N)=O)cc2)s1` [Example 055, 2-(4-(2-((5-methyl-1,3,4-thiadiazol-2-yl)amino)-2-oxoethyl)phenoxy) nicotinamide] returned an IC50 of 1.11 µM.

Take `NC(=O)c1cccnc1Oc1ccc(CC(=O)Nc2nnc(C3CC3)s2)cc1F` [Example 092, 2-(4-(2-((5-cyclopropyl-1,3,4-thiadiazol-2-yl)amino)-2-oxoethyl)-2-fluorophenoxy)nico-tinamide]: the IC50 worked out at 0.361 µM.

Regarding `Cc1ccc(-c2nc(NC(=O)Cc3ccc(Oc4ncccc4C(N)=O)cc3)sc2C)cc1Cl` [Example 050, 2-(4-(2-((4-(3-chloro-4-methylphenyl)-5-methylthiazol-2-yl)amino)-2-oxoethyl)phenoxy) nicotinamide], half-maximal inhibition (IC50) was put at 0.175 µM.

Molecule `NC(=O)c1cccnc1Oc1ccc(CC(=O)Nc2nc3c(F)cccn3n2)cc1F` [Example 127, 2-(2-fluoro-4-(2-((8-fluoro-[1,2,4]-triazolo[1,5-a]-pyridin-2-yl)amino)-2-oxoethyl)phenoxy)-nicotinamide] had an IC50 of 0.127 µM.

For `NC(=O)c1cccnc1Oc1ccc(CC(=O)Nc2nc3cc(Br)ccn3n2)cc1F` [Example 134, 2-(4-(2-((7-bromo-[1,2,4]triazolo[1,5-a]pyridin-2-yl)amino)-2-oxoethyl)-2-fluorophenoxy)nicotinamide], the IC50 was determined as 0.044 µM.

As for `COCCn1c(NC(=O)Cc2ccc(Oc3ncccc3C(N)=O)c(F)c2)nc2ccc(OC)cc21` [Example 157, 2-(2-fluoro-4-(2-((6-methoxy-1-(2-methoxyethyl)-1H-benzo[d]-imidazol-2-yl)-amino)-2-oxo-ethyl)phenoxy)-nicotinamide], inhibition was half-maximal at 0.804 µM (IC50).

`COc1ccc2c(c1)CCc1sc(NC(=O)Cc3ccc(Oc4ncccc4C(N)=O)c(F)c3)nc1-2` [Example 001, 2-(2-fluoro-4-(2-((7-methoxy-4,5-dihydronaphtho[1,2-d]thiazol-2-yl)amino)-2-oxoethyl)phenoxy)nicotinamide] showed an IC50 of 0.01 µM.

`Cn1cc(-c2ccc3c(c2)nc(NC(=O)Cc2ccc(Oc4ncccc4C(N)=O)c(F)c2)n3CC(F)(F)F)cn1` [Example 038, 2-(2-fluoro-4-(2-((5-(1-methyl-1H-pyrazol-4-yl)-1-(2,2,2-trifluoroethyl)-1H-benzo[d]imidazol-2-yl)amino)-2-oxoethyl)phenoxy)nico-tinamide] came in with an IC50 of 0.03 µM.

`Cc1nc2sccn2c1-c1csc(NC(=O)Cc2ccc(Oc3ncccc3C(N)=O)c(Cl)c2)n1` [Example 081, 2-(2-chloro-4-(2-((4-(6-methylimidazo[2,1-b]thiazol-5-yl)thiazol-2-yl)amino)-2-oxoethyl)phenoxy) nicotinamide] displayed an IC50 of 0.059 µM.

On to `CC(C)(O)COc1ccn2nc(NC(=O)Cc3ccc(Oc4ncccc4C(N)=O)c(F)c3)nc2c1` [Example 110, 2-(2-fluoro-4-(2-((7-(2-hydroxy-2-methylpropoxy)-[1,2,4]triazolo[1,5-a]pyridin-2-yl)amino)-2-oxoethyl)phenoxy)nicotinamide], for which half-maximal inhibition (IC50) was put at 0.036 µM.

Turning to `CC(C)(O)COc1ccc2sc(NC(=O)Cc3ccc(Oc4ncccc4C(N)=O)cc3)nc2c1` [Example 107, 2-(4-(2-((5-(2-hydroxy-2-methylpropoxy)benzo[d]thiazol-2-yl)amino)-2-oxoethyl)phenoxy)nicotinamide], half-maximal inhibition (IC50) required 0.029 µM.

In turn, `Cc1sc(NC(=O)Cc2ccc(Oc3ncccc3C(N)=O)c(F)c2)nc1-c1ccc(S(=O)(=O)C(C)C)cc1` [Example 048, 2-(2-fluoro-4-(2-((4-(4-(isopropylsulfonyl)phe-nyl)-5-methylthiazol-2-yl)amino)-2-oxoethyl)phenoxy)nico-tinamide] returned an IC50 of 0.112 µM.

Regarding `Cn1nccc1-c1ccc2sc(NC(=O)Cc3ccc(Oc4ncccc4C(N)=O)c(F)c3)nc2c1` [Example 030, 2-(2-fluoro-4-(2-((5-(1-methyl-1H-pyrazol-5-yl)benzo[d]thiazol-2-yl)amino)-2-oxoethyl)phenoxy)nico-tinamide], the IC50 amounted to 0.008 µM.

Take `Cc1sc(NC(=O)Cc2ccc(Oc3ncccc3C(N)=O)c(F)c2)nc1-c1cccc(F)n1` [Example 013, 2-(2-fluoro-4-(2-((4-(6-fluoropyridin-2-yl)-5-methylthiazol-2-yl)amino)-2-oxoethyl)phenoxy)nicotinamide]: it took 0.021 µM to reach half-maximal inhibition (IC50).

Molecule `COc1ccc2nc(NC(=O)Cc3ccc(Oc4ncccc4C(N)=O)c(F)c3)n(CC(F)F)c2c1` [Example 123, 2-(4-(2-((1-(2,2-difluoroethyl)-6-methoxy-1H-benzo-[d]imidazol-2-yl)-amino)-2-oxoethyl)-2-fluorophenoxy)-nicotinamide] displayed an IC50 of 0.018 µM.

Molecule `NC(=O)c1cccnc1Oc1ccc(CC(=O)Nc2nc3cc(F)ccc3n2CC2CC2)cc1F` [Example 165] yielded an IC50 of 0.026 µM.

In turn, `Cn1cc(-c2ccc3nc(NC(=O)Cc4ccc(Oc5ncccc5C(N)=O)c(F)c4)n(CC4CC4)c3c2)cn1` [Example 144, 2-(4-(2-((1-(cyclopropylmethyl)-6-(1-methyl-1H-pyrazol-4-yl)-1H-benzo[d]imidazol-2-yl)amino)-2-oxoethyl)-2-fluorophenoxy)nicotinamide] gave an IC50 of 0.005 µM.

As for `NC(=O)c1cccnc1Oc1ccc(CC(=O)Nc2nc3cc(C(F)(F)F)ccn3n2)cc1F` [Example 132, 2-(2-fluoro-4-(2-oxo-2-((7-(trifluoro-methyl)-[1,2,4]-triazolo[1,5-a]-pyridin-2-yl)amino)-ethyl)phenoxy)-nicotinamide], it took 0.129 µM to reach half-maximal inhibition (IC50).

`NC(=O)c1cccnc1Oc1ccc(CC(=O)Nc2nc(-c3ccc4c(c3)OCCO4)cs2)cc1` [Example 057, 2-(4-(2-((4-(2,3-dihydrobenzo[b][1, 4]dioxin-6-yl)thiazol-2-yl)amino)-2-oxoethyl)phenoxy) nicotinamide] gave an IC50 of 0.186 µM.

Molecule `Cn1cc(-c2ccc3sc(NC(=O)Cc4ccc(Oc5ncccc5C(N)=O)c(F)c4)nc3c2)c(C2CC2)n1` [Example 026, 2-(4-(2-((5-(3-cyclopropyl-1-methyl-1H-pyrazol-4-yl)benzo[d]thiazol-2-yl)amino)-2-oxoethyl)-2-fluorophenoxy)nicotin-amide] gave an IC50 of 0.008 µM.

With `Cn1ccc(-c2csc(NC(=O)Cc3ccc(Oc4ncccc4C(N)=O)c(F)c3)n2)cc1=O` [Example 017, 2-(2-fluoro-4-(2-((4-(1-methyl-2-oxo-1,2-dihydropyridin-4-yl)thiazol-2-yl)amino)-2-oxoethyl)phenoxy)nicotinamide], 0.404 µM corresponded to half-maximal inhibition (IC50).

`COc1cccc(-c2nc(NC(=O)Cc3ccc(Oc4ncccc4C(N)=O)c(F)c3)sc2C)n1` [Example 043, 2-(2-fluoro-4-(2-((4-(6-methoxypyridin-2-yl)-5-methylthiazol-2-yl)amino)-2-oxoethyl)phenoxy)nico-tinamide] registered an IC50 of 0.0696 µM.

As for `Cn1nccc1-c1ccn2nc(NC(=O)Cc3ccc(Oc4ncccc4C(N)=O)c(F)c3)nc2c1` [Example 137, 2-(2-fluoro-4-(2-((7-(1-methyl-1H-pyrazol-5-yl)-[1,2,4]-triazolo[1,5-a]pyridin-2-yl)amino)-2-oxoethyl)-phenoxy) nicotinamide], 0.013 µM corresponded to half-maximal inhibition (IC50).

Molecule `COC(=O)Nc1cc(-c2nc(NC(=O)Cc3ccc(Oc4ncccc4C(N)=O)c(F)c3)sc2C)ccn1` [Example 019, methyl (4-(2-(2-(4-((3-carbamoylpyridin-2-yl)oxy)-3-fluorophenyl)acetamido)-5-methylthiazol-4-yl)pyridin-2-yl)carbamate] displayed an IC50 of 0.049 µM.

Turning to `COc1cccn2nc(NC(=O)Cc3ccc(Oc4ncccc4C(N)=O)cc3)nc12` [Example 083, 2-(4-(2-((8-methoxy-[1,2,4]triazolo[1,5-a]pyridin-2-yl)amino)-2-oxoethyl)phenoxy) nicotinamide], the IC50 stood at 0.106 µM.

The molecule `COc1cccn2nc(NC(=O)Cc3ccc(Oc4ncccc4C(N)=O)c(F)c3)nc12` [Example 094, 2-(2-fluoro-4-(2-((8-methoxy-[1,2,4]triazolo[1,5-a]pyridin-2-yl)amino)-2-oxoethyl)phenoxy) nicotinamide] had a half-inhibitory concentration (IC50) of 0.015 µM.

The molecule `CC(C)(O)COc1ccc2nc(NC(=O)Cc3ccc(Oc4ncccc4C(N)=O)cc3)sc2c1` [Example 109, 2-(4-(2-((6-(2-hydroxy-2-methylpropoxy)benzo[d]thiazol-2-yl)amino)-2-oxoethyl)phenoxy)nicotinamide] had an IC50 of 0.074 µM.

Consider `Cc1sc(NC(=O)Cc2ccc(Oc3ncccc3C(N)=O)c(F)c2)nc1-c1ccncc1` [Example 044, 2-(2-fluoro-4-(2-((5-methyl-4-(pyridin-4-yl)thiazol-2-yl)amino)-2-oxoethyl)phenoxy)nico-tinamide], for which it took 0.024 µM to reach half-maximal inhibition (IC50).

In turn, `CP(C)(=O)c1ccc2sc(NC(=O)Cc3ccc(Oc4ncccc4C(N)=O)c(F)c3)nc2c1` [Example 146] had an IC50 of 0.132 µM.
